# Laboratory results as given in paper PMC4553520, “Laboratory and Simulated Field Bioassays to Evaluate Larvicidal Activity of Pinus densiflora Hydrodistillate, Its Constituents and Structurally Related Compounds against Aedes albopictus, Aedes aegypti and Culex pipiens pallens in Relation to Their Inhibitory Effects on Acetylcholinesterase Activity” (Insects, 2013).
# System: early third-instar larvae of Cx. p. pallens
# Experiment: Direct-contact mortality bioassay, laboratory-reared Cx. p. pallens larvae
# Settings: Culex pipiens, 24 h, read-out: LC50 (Cx p. pallens), mg/L (95% CL)
# Method: (§1) Direct-contact mortality bioassays were employed to evaluate the toxicity of all compounds, using early third-instar larvae of each mosquito species. Each compound was dissolved in methanol, and then further diluted in distilled water containing Triton X-100 (20 µL/L). Groups of 20 mosquito larvae of each species were put into separate paper cups (270 mL), each containing different compound solutions (250 mL). The toxicity of each compound was determined by repeating this experimental procedure with different concentrations, ranging from 5 to 200 mg/L. Temephos and fenthion served as standard references and were similarly formulated as well. Controls contained only methanol-Triton X-100 carrier solution in distilled water.
# (§2) Both treated and control larvae were kept under the same conditions as those used for colony maintenance. […] Due to certain constraints arising from the number of available larvae, all necessary bioassays could not be conducted simultaneously and thus, treatments were conducted over a period of time, with a separate control treatment included each time. Freshly prepared compound solutions were used for each round of bioassays. All bioassays were repeated three times.
# (§3) Concentration-mortality data were subjected to probit analysis using SAS [20]. […] Furthermore, for the compounds tested in AChE inhibition assays, a correlation analysis between their LC50 values and IC50 values was conducted using SAS [20].
row,SMILES,LC50
1,"C=C(C)C1CC=C(C)CC1 (single isomer, unassigned; (+)) [(+)-limonene]",10.8 mg/L
2,"CC12CCC(CC1)C(C)(C)O2 [1,8-cineole]",72.9 mg/L
3,CC1=CC[C@@H]2C[C@H]1C2(C)C [(1R)-(+)-α-pinene],60.8 mg/L
4,CC1=CC[C@H]2C[C@@H]1C2(C)C [(1S)-(−)-α-pinene],32 mg/L
5,CC(C)=CCC[C@H](C)CC=O [(−)-citronellal],41.9 mg/L
6,CC1=CC(=O)[C@H]2C[C@@H]1C2(C)C [(−)-verbenone],89.1 mg/L
7,CC1(C)C2CCC1(C)C(O)C2 (stereo not drawn) [Borneol],> 150 mg/L
8,CC(=O)OC1CC2CCC1(C)C2(C)C (stereo not drawn) [Bornyl acetate],> 150 mg/L
9,C=C1C2CCC(C2)C1(C)C (stereo not drawn) [Camphene],80.1 mg/L
10,CC12CCC(CC1=O)C2(C)C (stereo not drawn) [Camphor],> 150 mg/L
11,Cc1ccc(C(C)C)cc1O [Carvacrol],91.9 mg/L
12,C=C(C)C1CC=C(C)[C@@H](O)C1 (stereo partly drawn) [Carveol],114 mg/L
13,"COP(=S)(OC)Oc1ccc(SC)c(C)c1 [Fenthion, reference compound]",0.027 mg/L
14,CC(C)=CCC/C(C)=C/CO [Geraniol],57 mg/L
15,CC(=O)OC/C=C(\C)CCC=C(C)C [Geranyl acetate],30.3 mg/L
16,C=CC(C)(O)CCC=C(C)C (stereo not drawn) [Linalool],144 mg/L
17,C=CC(C)(CCC=C(C)C)OC(C)=O (stereo not drawn) [Linanyl acetate],97 mg/L
18,CC1CCC(C(C)C)C(O)C1 (stereo not drawn) [Menthol],67.3 mg/L
19,"C=CC(=C)CCC=C(C)C [Myrcene, β-myrcene]",41.3 mg/L
20,CC(C)=CCC/C(C)=C\CO [Nerol],111 mg/L
21,"COP(=S)(OC)Oc1ccc(Sc2ccc(OP(=S)(OC)OC)cc2)cc1 [Temephos, reference compound]",0.013 mg/L

# System: field-collected larvae of Cx. p. pallens
# Experiment: Semi-field bioassay, field-collected Cx. p. pallens larvae
# Settings: Culex pipiens, 24 h, read-out: LC50, mg/L, Field-collected
# Method: Larvae of wild mosquitoes were field-collected from irrigated rice fields in Yongin, Korea in early August 2012. A satellite view of the larvae collection site is included in Figure 1 [13].
# The buckets were treated with test compounds and covered with nylon mesh screen to prevent other mosquitoes and insects from laying eggs. The buckets were then placed back at the initial collection site and were allowed to stand for 24 h, after which the mortality data were recorded. Temephos and fenthion served as standard references.
# as §3
row,SMILES,LC50
1,"C=C(C)C1CC=C(C)CC1 (single isomer, unassigned; (+)) [(+)-limonene]",10.5 mg/L
2,"COP(=S)(OC)Oc1ccc(SC)c(C)c1 [Fenthion, reference compound]",3.12 mg/L
3,"COP(=S)(OC)Oc1ccc(Sc2ccc(OP(=S)(OC)OC)cc2)cc1 [Temephos, reference compound]",1.68 mg/L

# Same assay, conditions: field-collected vs laboratory-reared Cx. p. pallens larvae (LC50 ratio)
row,SMILES,Resistance ratio
1,"C=C(C)C1CC=C(C)CC1 (single isomer, unassigned; (+)) [(+)-limonene]",0.98
2,"COP(=S)(OC)Oc1ccc(SC)c(C)c1 [Fenthion, reference compound]",115.56
3,"COP(=S)(OC)Oc1ccc(Sc2ccc(OP(=S)(OC)OC)cc2)cc1 [Temephos, reference compound]",129.23

# System: early third-instar larvae of Ae. albopictus
# Experiment: Direct-contact mortality bioassay, Ae. albopictus larvae
# Settings: Aedes albopictus, 24 h, read-out: LC50 (Ae. albopictus), mg/L (95% CL)
# Method: as §1, §2, §3
row,SMILES,LC50
1,"C=C(C)C1CC=C(C)CC1 (single isomer, unassigned; (+)) [(+)-limonene]",10.8 mg/L
2,"CC12CCC(CC1)C(C)(C)O2 [1,8-cineole]",73.5 mg/L
3,CC1=CC[C@@H]2C[C@H]1C2(C)C [(1R)-(+)-α-pinene],55.6 mg/L
4,CC1=CC[C@H]2C[C@@H]1C2(C)C [(1S)-(−)-α-pinene],28.6 mg/L
5,CC(C)=CCC[C@H](C)CC=O [(−)-citronellal],41.1 mg/L
6,CC1=CC(=O)[C@H]2C[C@@H]1C2(C)C [(−)-verbenone],89.4 mg/L
7,CC1(C)C2CCC1(C)C(O)C2 (stereo not drawn) [Borneol],> 150 mg/L
8,CC(=O)OC1CC2CCC1(C)C2(C)C (stereo not drawn) [Bornyl acetate],> 150 mg/L
9,C=C1C2CCC(C2)C1(C)C (stereo not drawn) [Camphene],79.1 mg/L
10,CC12CCC(CC1=O)C2(C)C (stereo not drawn) [Camphor],> 150 mg/L
11,Cc1ccc(C(C)C)cc1O [Carvacrol],95 mg/L
12,C=C(C)C1CC=C(C)[C@@H](O)C1 (stereo partly drawn) [Carveol],121 mg/L
13,"COP(=S)(OC)Oc1ccc(SC)c(C)c1 [Fenthion, reference compound]",0.012 mg/L
14,CC(C)=CCC/C(C)=C/CO [Geraniol],68.2 mg/L
15,CC(=O)OC/C=C(\C)CCC=C(C)C [Geranyl acetate],33 mg/L
16,C=CC(C)(O)CCC=C(C)C (stereo not drawn) [Linalool],129 mg/L
17,C=CC(C)(CCC=C(C)C)OC(C)=O (stereo not drawn) [Linanyl acetate],98.1 mg/L
18,CC1CCC(C(C)C)C(O)C1 (stereo not drawn) [Menthol],69.6 mg/L
19,"C=CC(=C)CCC=C(C)C [Myrcene, β-myrcene]",36 mg/L
20,CC(C)=CCC/C(C)=C\CO [Nerol],112 mg/L
21,"COP(=S)(OC)Oc1ccc(Sc2ccc(OP(=S)(OC)OC)cc2)cc1 [Temephos, reference compound]",0.01 mg/L

# System: early third-instar larvae of Ae. aegypti
# Experiment: Direct-contact mortality bioassay, Ae. aegypti larvae
# Settings: Aedes aegypti, 24 h, read-out: LC50 (Ae. aegypti), mg/L (95% CL)
# Method: as §1, §2, §3
row,SMILES,LC50
1,"C=C(C)C1CC=C(C)CC1 (single isomer, unassigned; (+)) [(+)-limonene]",15.3 mg/L
2,"CC12CCC(CC1)C(C)(C)O2 [1,8-cineole]",73.3 mg/L
3,CC1=CC[C@@H]2C[C@H]1C2(C)C [(1R)-(+)-α-pinene],51.3 mg/L
4,CC1=CC[C@H]2C[C@@H]1C2(C)C [(1S)-(−)-α-pinene],40 mg/L
5,CC(C)=CCC[C@H](C)CC=O [(−)-citronellal],37.5 mg/L
6,CC1=CC(=O)[C@H]2C[C@@H]1C2(C)C [(−)-verbenone],96.8 mg/L
7,CC1(C)C2CCC1(C)C(O)C2 (stereo not drawn) [Borneol],> 150 mg/L
8,CC(=O)OC1CC2CCC1(C)C2(C)C (stereo not drawn) [Bornyl acetate],> 150 mg/L
9,C=C1C2CCC(C2)C1(C)C (stereo not drawn) [Camphene],72.9 mg/L
10,CC12CCC(CC1=O)C2(C)C (stereo not drawn) [Camphor],> 150 mg/L
11,Cc1ccc(C(C)C)cc1O [Carvacrol],101 mg/L
12,C=C(C)C1CC=C(C)[C@@H](O)C1 (stereo partly drawn) [Carveol],124 mg/L
13,"COP(=S)(OC)Oc1ccc(SC)c(C)c1 [Fenthion, reference compound]",0.022 mg/L
14,CC(C)=CCC/C(C)=C/CO [Geraniol],73.4 mg/L
15,CC(=O)OC/C=C(\C)CCC=C(C)C [Geranyl acetate],21.4 mg/L
16,C=CC(C)(O)CCC=C(C)C (stereo not drawn) [Linalool],113 mg/L
17,C=CC(C)(CCC=C(C)C)OC(C)=O (stereo not drawn) [Linanyl acetate],97.8 mg/L
18,CC1CCC(C(C)C)C(O)C1 (stereo not drawn) [Menthol],81.2 mg/L
19,"C=CC(=C)CCC=C(C)C [Myrcene, β-myrcene]",39.5 mg/L
20,CC(C)=CCC/C(C)=C\CO [Nerol],121 mg/L
21,"COP(=S)(OC)Oc1ccc(Sc2ccc(OP(=S)(OC)OC)cc2)cc1 [Temephos, reference compound]",0.015 mg/L
